Data taken from patent US20060153781A1, “Repair of dna mutagenic damage” (Novogen Research Pty Ltd, a Corporation, priority 2002, published 2006).
Several values for one entry are separate records, joined by “and”; a condition that tells them apart may be missing. Equal values may be shown once.

Columns and labels:
Type in all cases: in vivo
p53 in the epidermis = assay: P53 staining in skin biopsies of human volunteers following UV irradiation
Procedure: (§1) Equol was applied to the skin of five human volunteers immediately after, and at 4 hours and 6 hours post-UV irradiation. A control lotion was also used containing no equol. Twenty-four hours after UV irradiation, skin biopsies were taken and MT production was measured using immunohistochemistry.
The skin biopsies from the five human volunteers from Example 2 were tested for P53 staining following UV irradiation.

[1] = test system: metallothionein (MT) in the epidermis; assay: MT production in skin biopsies of human volunteers after UV irradiation (immunohistochemistry); settings: 24 hrs after 2.5 MED SSUV
Procedure: as §1
Approximately half of the cells in the basal epidermis constitutively expressed MT at baseline, whereas almost none of the cells in the more superficial layers of the epidermis expressed MT. At 24 hrs after exposure to 2.5 MED SSUV, there were apparent differences in the expression of MT in the basal layers of the epidermis between sections treated with equol and those treated with DMSO in base lotion (vehicle). In all 5 participants, the expression of MT was higher in the skin treated with equol, with the magnitude of the difference ranging from +4% to +21%.

[2] = test system: cyclobutane pyrimidine dimers (CPD) in skin of hairless mice; assay: Induction of epidermal CPD-positive cells in skin of hairless mice exposed to SSUV (immunohistochemistry); settings: for reduction in the number of CPD compared with control group (vehicle alone): equol lotion 20 μM for 7 days prior and 5 days after SSUV, p<0.05; for CPD + ve cells/linear cm: hairless mice; for reduction of dimers: equol applied immediately after SSUV exposure and continuing for 5 d
Source text: The effect of equol on the induction of CPD was examined in the skin of hairless mice (a standard model for human dermatological investigations) exposed to solar simulated ultraviolet radiation (SSUV). At various time points after SSUV, dorsal skin was excised, fixed for 6 hr in a standard fixing medium (HistoChoice™, Amersco Inc, Solon, Ohio, USA), processed and paraffin-embedded. Pyrimidine dimers were detected immunohistochemically using citric acid antigen retrieval and the H3 anti-pyrimidine dimer antibody. The number of dimer-positive cells was counted manually in 30 fields per mouse, at 40× magnification.

CPDs in the epidermis = assay: Cyclobutane pyrimidine dimer formation in skin biopsies of human volunteers after UV irradiation (immunohistochemistry)
Procedure: as §1
The skin biopsies from the five human volunteers from Example 2 were tested for cyclobutane pyrimidine dimer formation using immunohistochemistry.

[3] = 24 hrs after 2.5 MED SSUV, equol 200 μM topical, one row per subject (five volunteers)
[4] = equol 200 μM topical, one row per subject (five volunteers)
[5] = 24 hrs after 2.5 MED SSUV, lotion containing equol 200 μM, one row per subject (five volunteers)

## Oc1ccc(C2COc3cc(O)ccc3C2)cc1 (stereo not shown) [equol]
p53 in the epidermis; [3]
  p53 staining, Basal epidermis, % positive cells: 22% and 8% and 11% and 6% and 26%
  p53 staining, Basal epidermis, neg (cell count): 161 and 172 and 250 and 140 and 118
  p53 staining, Basal epidermis, pos (cell count): 46 and 15 and 31 and 9 and 41
  p53 staining, Total epidermis, % positive cells: 26% and 21% and 9% and 4% and 25%
  p53 staining, Total epidermis, neg (cell count): 270 and 337 and 500 and 287 and 227
  p53 staining, Total epidermis, pos (cell count): 94 and 87 and 50 and 13 and 76
  p53 staining, Upper epidermis, % positive cells: 31% and 30% and 7% and 3% and 24%
  p53 staining, Upper epidermis, neg (cell count): 109 (2×) and 165 and 250 and 147
  p53 staining, Upper epidermis, pos (cell count): 48 and 72 and 19 and 4 and 35
p53 in the epidermis; 24 hrs after UV exposure, equol treated vs vehicle
  percentage of p53 expression in upper and/or basal epidermis (in words): reduced in four out of five equol treated subjects
p53 in the epidermis; subjects N13PDO and N14GBO, 24 hrs after UV exposure, 'generally'
  reduction of percentage of p53 staining compared with vehicle controls: more than 50%
[1]; all 5 participants
  expression of MT in skin treated with equol vs vehicle (in words): higher
[1]; [4]
  MT staining, Basal epidermis, % positive cells: 76% and 59% and 69% and 77% and 60%
  MT staining, Basal epidermis, neg (cell count): 118 and 188 and 239 and 154 and 157
  MT staining, Basal epidermis, pos (cell count): 380 and 271 and 531 and 522 and 233
  MT staining, Total epidermis, % positive cells: 56% and 50% and 63% and 62% and 51%
  MT staining, Total epidermis, neg (cell count): 303 and 270 and 315 and 323 and 225
  MT staining, Total epidermis, pos (cell count): 382 and 271 and 539 and 527 and 234
  MT staining, Upper epidermis, % positive cells: 1% (2×) and 0% and 10% and 3%
  MT staining, Upper epidermis, neg (cell count): 185 and 82 and 76 and 169 and 68
  MT staining, Upper epidermis, pos (cell count): 2 and 0 and 8 and 5 and 1
[2]; 1 hour after SSUV
  reduction in the number of CPD compared with control group (vehicle alone): 54%
[2]; 1 hr post-SSUV, equol lotion 20 μM daily for 7 days prior to and following 1×3 MED SSUV
  CPD + ve cells/linear cm: 238 ± 22 cells/linear cm
[2]; 1 day post-irradiation
  reduction of dimers: 23%
[2]; 24 hours after SSUV
  reduction in the number of CPD compared with control group (vehicle alone): 50%
[2]; 24 hr post-SSUV, equol lotion 20 μM daily for 7 days prior to and following 1×3 MED SSUV
  CPD + ve cells/linear cm: 167 ± 17 cells/linear cm
[2]; 48 hours after SSUV
  reduction in the number of CPD compared with control group (vehicle alone): 26%
[2]; 2 d post-irradiation, data not shown
  reduction of dimers: 42%
[2]; equol lotion 20 μM daily for 7 days prior to and following 1×3 MED SSUV
  effect on dimer induction and repair (in words): reduce the initial induction of dimers, and to enhance the rate of their repair
CPDs in the epidermis; [5]
  CPD staining, Basal epidermis, % positive cells: 15% and 0% and 10% and 25% (2×)
  CPD staining, Basal epidermis, neg (cell count): 94 and 279 and 181 and 134 and 125
  CPD staining, Basal epidermis, pos (cell count): 16 and 1 and 21 and 44 and 41
  CPD staining, Total epidermis, % positive cells: 19% and 5% and 25% and 31% (2×)
  CPD staining, Total epidermis, neg (cell count): 164 and 349 and 279 and 213 and 188
  CPD staining, Total epidermis, pos (cell count): 39 and 18 and 92 and 94 and 85
  CPD staining, Upper epidermis, % positive cells: 25% and 20% and 42% and 39% and 41%
  CPD staining, Upper epidermis, neg (cell count): 70 (2×) and 98 and 79 and 63
  CPD staining, Upper epidermis, pos (cell count): 23 and 17 and 71 and 50 and 44
CPDs in the epidermis; 24 hrs after UV exposure, 4 out of 5 participants
  CPD-positive cells, equol lotion vs DMSO in base lotion (vehicle) (in words): proportionally less CPD-positive cells
CPDs in the epidermis; at 24 hours, pooled participants
  CPD damage, data from all participants pooled (in words): moderately lower levels of CPD damage
